Test results as given in US5681820A, “Guanidinoalkyl glycine β-amino acids useful for inhibiting tumor metastasis” (G. D. Searle & Co., priority 1995, dated 1997).
Structures can show the parent of a compound that is named as a salt.

Assays:
[1] = molecular target: T1, human vitronectin receptor (αv β3) (Homo sapiens, UniProt P05106+P06756); assay: Solid Phase Receptor Assay: purified vitronectin receptor (αv β3), competition with biotinylated vitronectin; format: binding; conditions: 1 nM biotinylated vitronectin, read-out: VnR/IC50
T1 construct: Human vitronectin receptor(αv β3) was purified from human placenta; from tissue; host or cells: human placenta
Procedure: Human vitronectin receptor(αv β3) was purified from human placenta as previously described [Pytela et al., Methods in Enzymology, 144:475-489 (1987)]. Human vitronectin was purified from fresh frozen plasma as previously described [Yatohgo et al., Cell Structure and Function, 13:281-292 (1988)]. Biotinylated human vitronectin was prepared by coupling NHS-biotin from Pierce Chemical Company (Rockford, Ill.) to purified vitronectin as previously described [Charo et al., J. Biol. Chem., 266(3):1415-1421 (1991)]. Assay buffer, OPD substrate tablets, and RIA grade BSA were obtained from Sigma (St. Louis, Mo.). Anti-biotin antibody was obtained from Calbiochem (La Jolla, Calif.). GRGDSP peptide was purchased from Bachem (Torrance, Calif.). Linbro microtiter plates were obtained from Flow Labs (McLean, Va.). ADP reagent was obtained from Sigma (St. Louis, Mo.).
Solid Phase Receptor Assays
This assay was essentially the same as previously reported [Niiya et al., Blood, 70:475-483 (1987)]. […] The plate was read with a microtiter plate reader at a wavelength of 450 nm and when the maximum-binding control wells reached an absorbance of about 1.0, the final A450 were recorded for analysis. The data were analyzed using a macro written for use with the EXCEL™ spreadsheet program. The mean, standard deviation, and %CV were determined for duplicate concentrations. […]

[2] = system: M21 human melanoma cells (αv β3-dependent adhesion); assay: M21 Melanoma Cell Adhesion Assay: αv β3-dependent adhesion to human fibrinogen; format: cell-based; conditions: 0.5 h, 200 μM Mn++, 30 minutes, 37° C.
Procedure: M21 Melanoma Cell Adhesion Assasy
This assay involves an αv β3 -dependent adhesion of M21 human melanoma cells to human fibrinogen-coated plastic tissue culture dishes.
Fibrinogen was purified from human plasma. Fibronectin and plasminogen were eliminated from the preparation by passing the sample over gelatin-sepharose 4B and lysine-sepharose 4B resins, respectively. The fibrinogen is diluted to 10 μg/mL in coating buffer (20 mM Tris-HCl, 150 mM NaCl, pH 7.4). 100 μL of diluted fibrinogen is added to each well of a 96-well Immulon 2 microtiter plate (Dynatech; Chantilly, Va.) and allowed to coat overnight at 4° C. […]
M21 human melanoma cells were provided by Dr. J. Smith, La Jolla Cancer Research Institute. […] Cells are counted and suspended to a density of 2×10^6 /mL in adhesion assay buffer containing 200 μM Mn^++. […]
Following adhesion, plates are gently washed 3 times with 200 μL of wash buffer (50 mM Tris-HCl, 150 mM NaCl, pH 7.4) using large bore pipet tips. Plates are briefly blotted dry and 100 μL of cell lysis buffer (50 mM sodium acetate, pH 5.0, 0.5% Triton X-100, 0.3 mg/mL p-nitrophenyl phosphate [Sigma] is added to each well. Plates are incubated for 60 minutes at 37° C. and 50 μL of 1N NaOH is added to stop the reaction. The absorbance of the wells at […] is read using an automatic plate reader.

A3827 cells = assay: Cell Adhesion Assay: adhesion of A3827 cells to fibrinogen; format: cell-based; conditions: 300 μM MnCl2, 1 hour, 37° C.
Procedure: Fibrinogen was purified from human plasma. Fibronectin and plasminogen were eliminated from the preparation by passing the sample over gelatin-sepharose 4B and lysine-sepharose 4B resins, respectively. The fibrinogen was resuspended at a concentration of 10 μg/mL in 100 mM sodium bicarbonate, pH 9.0. Immulon II (Nunc) microtiter plates were coated by incubating with 100 μL/well of fibrinogen solution overnight at 4° C. After coating with fibrinogen, plates were rinsed three times with phosphate buffered saline (PBS) and 100 μL of a 1% bovine serum albumin (BSA) solution was added to each well and stored at -20° C. until needed. A3827 cells were harvested from subconfluent 75 cm^2 culture flasks with 2 mM EDTA in PBS and resuspended at 5×10^5 cells/mL in Dulbecco's PBS without calcium or magnesium (Sigma #5652) containing 1% BSA. MnCl2 was added to a final concentration of 300 μM. Test compounds were resuspended in PBS and added to the cell suspension before serial dilution. […] Adherent cells were quantitated using a non-radioactive cell proliferation assay (Promega #G5430) using the instructions provided by the supplier. Plates were allowed to equilibrate overnight at room temperature in a humidified chamber and a Biotek EL312 microplate spectrophotometer was used to measure the difference in absorbance at […]. […]

| IC50 [1] [nM] | IC50 [2] [nM] | IC50 (A3827 cells) [nM] | SMILES |
| --- | --- | --- | --- |
| 987 | 1410 | – | CCOC(=O)CC(NC(=O)CNC(=O)CCCNC(=N)N)c1cccnc1 (racemic) [Example 3-ethyl ester, (±) ethyl β-[[2-[[4-[(aminoiminomethyl)amino]-1-oxobutyl]amino]-1-oxoethyl]amino]-3-pyridinepropanoate] |
| – | 40.4 | 30 | N=C(N)NCCCCC(=O)NCC(=O)NC(CC(=O)O)c1cccnc1 (stereo not drawn) [Example 1, β-[[2-[[5-[(aminoiminomethyl)amino]-1-oxopentyl]amino]-1-oxoethyl]amino]-3-pyridinepropanoic acid, bistrifluoroacetate salt] |
| 142 | – | – | N=C(N)NCCCCC(=O)N1CCC[C@H]1C(=O)N[C@@H](CC(=O)O)c1cccnc1 [Example 2, βS-[[[1-[5-[(aminoiminomethyl)amino]-1-oxopentyl]pyrrolidin-2-yl]carbonyl]amino-3-pyridinepropanoic acid, bistrifluoroacetate salt] |
